For assay [1], the system named is retinoid induced bone resorption in thyroparathyroidectomised rats. Nature of the assay: Inhibition of retinoid induced bone resorption in thyroparathyroidectomised rats in vivo. More on the design: species or system rat. The following applies: 150 μmole/kg. The procedure:
(§1) The parathyroid hormone stimulated bone resorption inhibition activity of the compounds in vitro in mouse calvaria, as well as the inhibition of retinoid induced bone resorption in thyroparathyroidectomised rats in vivo were determined (Reynolds & Dingle (Calc Tiss Res 1970; 4:339, and Trechsel et al. (J Clin Invest 1987; 80:1679)).

Assay [2] relates to parathyroid hormone stimulated bone resorption in mouse calvaria. In words: Parathyroid hormone stimulated bone resorption inhibition in vitro in mouse calvaria. Format: cell-based. As to conditions: 100 μm. Here is the method:
as §1

Molecules are shown by their SMILES. Some results are limits rather than exact numbers.

For `O=P(O)(O)C(Cl)(Cl)P(=O)(O)O` [Clodronate, reference compound], the “Inhibition of resorption (%), in vivo” value in assay [1] was 64%.

For `CCOP(=O)(O)C(Nc1ccccn1)P(=O)(O)OCC` (stereo not shown) [[[(2-Pyridinyl)amino]methylidene]bisphosphonic acid P,P'-diethyl ester], the “Inhibition of resorption (%), in vitro” value in assay [2] turned out to be 33%. Also, the “Inhibition of resorption (%), in vivo” value in assay [1] is 65%. The like results for `CC(C)OP(=O)(O)C(Sc1ccccn1)P(=O)(O)O` (stereo not shown) [[[(2-Pyridinyl)thio]methylidene]bisphosphonic Acid Monoisopropyl Ester] were, in that order, 50% and 87%. Turning to `O=P(O)(O)C(Nc1ccccn1)P(=O)(O)O` [[[(2-pyridinyl)amino]methylidene]bisphosphonate, reference compound], the “Inhibition of resorption (%), in vitro” value in assay [2] is 56%. Besides, the “Inhibition of resorption (%), in vivo” value in assay [1] is on record as over 100%.

As to `CCOP(=O)(O)C(Nc1ncccc1C)P(=O)(O)OCC` (stereo not shown) [[[(3-Methyl-2-pyridinyl)amino]methylidene) Bisphosphonic Acid P,P'-diethyl Ester], the “Inhibition of resorption (%), in vitro” value in assay [2] came to 43%. Further, the “Inhibition of resorption (%), in vivo” value in assay [1] worked out at 66%. Turning to `Cc1cccnc1NC(P(=O)(O)O)P(=O)(O)O` [[[(3-methyl 2-pyridinyl)amino]methylidene]bisphosphonate, reference compound], in assay [2], the “Inhibition of resorption (%), in vitro” value is 51%.
